Where two headings read alike, the source gives them in different places.
Target: Nav1.6 (Homo sapiens, UniProt Q9UQD0)
Experiment: Nav two-pulse protocol, IonWorks Quattro electrophysiology
Assay type: cell-based
Details: -120 mV to 0 mV, compound incubated 300 s
Experimental: Compound Plate Preparation
Supplied compounds were sent as Assay Ready Plates, with 2 μL per well of compound in DMSO at 300× the final assay concentrations as described above and in the project proposal. All assay plates are stored at in a −80° C. freezer.
On the day of the assay, 198 μL of external solution was added to the appropriate assay plate and mixed thoroughly. This provided a 1:100 dilution. A further 1:3 dilution occurred upon addition to the cells in the IonWorks, giving a 1:300 dilution in total.
On each assay plate, at least 8 wells were reserved for vehicle control (0.3% DMSO) and at least 8 wells for each positive control specific to the cell line tested. The positive controls were tested in an 8-point dose response with 3-fold dilutions to determine an IC50 value for each run. The positive control compounds are outlined below.
Ion Channel Positive Control & Concentrations
Nav1.6/1.2 Lidocaine: 8, 3-fold dilutions starting at 100 μM
Electrophysiological Recording Solutions
The solutions for recording currents were are follows:
Amphotericin B was used to obtain electrical access to the cell interior at a final concentration of 200 μg/ml in internal recording solution.
Experimental Protocols & Data Analysis
Nav currents were evoked by stepping from a holding potential of −120 mV to 0 mV for 2.5 s (pulse 1), followed by a 5 ms inter-pulse interval, and stepping from a holding potential of −120 mV to 0 mV for 20 ms (pulse 2). The voltage protocol was applied (Pre), compounds added, incubated for 300 seconds, and the voltage protocol was applied a final time (Post) on the IonWorks Quattro.
The parameters measured were the maximum inward current evoked on stepping to 0 mV from the 1st and 2nd pulse. All data were filtered for seal quality, seal drop, and current amplitude. The peak current amplitude (Peak) was calculated before (Pre) and after (Post) compound addition to the amount of block was assessed by dividing the Post-compound current amplitude by the Pre-compound current amplitude. These procedures were implemented for the 1st and 2nd pulse.

Sequence of Nav1.6 (Q9UQD0 whole entry): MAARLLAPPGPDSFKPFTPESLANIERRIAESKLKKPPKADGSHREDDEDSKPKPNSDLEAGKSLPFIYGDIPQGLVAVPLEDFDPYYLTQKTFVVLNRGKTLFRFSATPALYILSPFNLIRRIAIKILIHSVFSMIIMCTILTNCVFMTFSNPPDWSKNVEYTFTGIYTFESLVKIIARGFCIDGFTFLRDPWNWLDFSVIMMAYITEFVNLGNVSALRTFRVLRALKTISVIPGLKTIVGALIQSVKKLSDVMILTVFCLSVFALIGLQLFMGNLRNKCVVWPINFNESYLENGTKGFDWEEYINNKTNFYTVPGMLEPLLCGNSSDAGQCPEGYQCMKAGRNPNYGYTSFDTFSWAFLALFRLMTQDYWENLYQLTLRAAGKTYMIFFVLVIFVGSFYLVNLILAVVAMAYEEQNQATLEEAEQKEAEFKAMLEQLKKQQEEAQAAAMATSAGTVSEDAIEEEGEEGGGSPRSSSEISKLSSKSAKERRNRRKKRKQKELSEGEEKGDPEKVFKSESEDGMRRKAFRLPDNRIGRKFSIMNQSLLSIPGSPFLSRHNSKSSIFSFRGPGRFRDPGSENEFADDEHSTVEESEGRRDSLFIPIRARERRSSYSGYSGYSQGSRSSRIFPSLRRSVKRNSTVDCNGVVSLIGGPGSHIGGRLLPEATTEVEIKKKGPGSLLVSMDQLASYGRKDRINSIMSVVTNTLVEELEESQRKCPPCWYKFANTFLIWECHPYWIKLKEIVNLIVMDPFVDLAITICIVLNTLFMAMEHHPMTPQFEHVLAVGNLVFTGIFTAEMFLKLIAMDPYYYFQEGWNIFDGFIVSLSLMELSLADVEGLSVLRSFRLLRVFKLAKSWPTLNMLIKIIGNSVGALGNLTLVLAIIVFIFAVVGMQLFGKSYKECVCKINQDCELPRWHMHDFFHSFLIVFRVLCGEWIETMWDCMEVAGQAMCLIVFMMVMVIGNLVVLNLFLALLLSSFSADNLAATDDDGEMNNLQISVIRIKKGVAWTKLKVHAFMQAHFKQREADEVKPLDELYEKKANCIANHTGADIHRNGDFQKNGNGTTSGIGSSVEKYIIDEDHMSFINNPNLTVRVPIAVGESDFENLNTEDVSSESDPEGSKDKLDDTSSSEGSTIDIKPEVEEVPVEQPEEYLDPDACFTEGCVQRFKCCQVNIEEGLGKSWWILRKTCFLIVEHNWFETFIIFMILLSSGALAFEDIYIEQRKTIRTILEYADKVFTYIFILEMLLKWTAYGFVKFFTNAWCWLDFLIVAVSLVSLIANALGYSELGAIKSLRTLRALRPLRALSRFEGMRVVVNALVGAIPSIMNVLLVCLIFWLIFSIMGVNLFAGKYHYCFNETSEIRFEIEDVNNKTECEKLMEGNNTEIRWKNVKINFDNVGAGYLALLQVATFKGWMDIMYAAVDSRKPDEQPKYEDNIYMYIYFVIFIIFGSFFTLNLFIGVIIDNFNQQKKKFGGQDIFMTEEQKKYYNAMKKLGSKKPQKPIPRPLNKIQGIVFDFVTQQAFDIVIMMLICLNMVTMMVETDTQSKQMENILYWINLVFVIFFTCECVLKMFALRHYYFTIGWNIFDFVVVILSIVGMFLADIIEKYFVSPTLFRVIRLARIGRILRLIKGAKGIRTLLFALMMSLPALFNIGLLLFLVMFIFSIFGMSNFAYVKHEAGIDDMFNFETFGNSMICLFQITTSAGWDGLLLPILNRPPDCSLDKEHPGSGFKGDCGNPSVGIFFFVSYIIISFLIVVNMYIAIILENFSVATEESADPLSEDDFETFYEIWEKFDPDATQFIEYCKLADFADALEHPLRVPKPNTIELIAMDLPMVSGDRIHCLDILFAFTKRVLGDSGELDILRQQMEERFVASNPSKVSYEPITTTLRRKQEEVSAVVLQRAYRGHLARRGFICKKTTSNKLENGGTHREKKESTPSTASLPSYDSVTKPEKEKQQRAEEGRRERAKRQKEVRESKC

IC50 (read-out: Nav1.6 Tonic) [µM] | IC50 (read-out: Nav1.6 inac) [µM] | SMILES
> 20 | < 1 | Cc1ccc(Oc2cccc(CN3CCC(C(=O)NCc4ccccn4)C3)c2)cc1 (centres unmarked) [Compound 1, 1-(3-p-Tolyloxy-benzyl)-pyrrolidine-3-carboxylic acid (pyridin-2-ylmethyl)-amide]
> 20 | 1 to 5 | COc1cccc(Oc2cccc(CN3CCC(C(=O)NCc4ccccn4)C3)c2)c1 (centres unmarked) [Compound 2, 1-[3-(3-Methoxy-phenoxy)-benzyl]-pyrrolidine-3-carboxylic acid (pyridin-2-ylmethyl)-amide]
> 20 | 1 to 5 | O=C(NCc1ccccn1)C1CCN(Cc2cccc(Oc3ccc(F)c(F)c3)c2)C1 (centres unmarked) [Compound 3, 1-[3-(3,4-Difluoro-phenoxy)-benzyl]-pyrrolidine-3-carboxylic acid (pyridin-2-ylmethyl)-amide]
10 to 20 | < 1 | O=C(NCc1ccccn1)C1CCN(Cc2cccc(Oc3ccccn3)c2)C1 (centres unmarked) [Compound 4, 1-[3-(Pyridin-2-yloxy)-benzyl]-pyrrolidine-3-carboxylic acid (pyridin-2-ylmethyl)-amide]
> 20 | < 1 | O=C(NCc1ccccn1)C1CCN(Cc2cccc(Oc3cccc(C(F)(F)F)c3)c2)C1 (centres unmarked) [Compound 5, 1-[3-(3-Trifluoromethyl-phenoxy)-benzyl]-pyrrolidine-3-carboxylic acid (pyridin-2-ylmethyl)-amide]
> 20 | > 5 | COc1ccc(Oc2cccc(CN3CCC(C(=O)NCc4ccccn4)C3)c2)cc1 (centres unmarked) [Compound 6, 1-[3-(4-Methoxy-phenoxy)-benzyl]-pyrrolidine-3-carboxylic acid (pyridin-2-ylmethyl)-amide]
> 20 | < 1 | COc1ccccc1Oc1cccc(CN2CCC(C(=O)NCc3ccccn3)C2)c1 (centres unmarked) [Compound 7, 1-[3-(2-Methoxy-phenoxy)-benzyl]-pyrrolidine-3-carboxylic acid (pyridin-2-ylmethyl)-amide]
> 20 | < 1 | O=C(NCc1ccccn1)C1CCN(Cc2cccc(Oc3ccc(F)cc3F)c2)C1 (centres unmarked) [Compound 8, 1-[3-(2,4-Difluoro-phenoxy)-benzyl]-pyrrolidine-3-carboxylic acid (pyridin-2-ylmethyl)-amide]
> 20 | < 1 | Cc1cc(C)cc(Oc2cccc(CN3CCC(C(=O)NCc4ccccn4)C3)c2)c1 (stereo not drawn) [Compound 9, l-[3-(3,5-Dimethyl-phenoxy)-benzyl]-pyrrolidine-3-carboxylic acid (pyridin-2-ylmethyl)-amide]
10 to 20 | 1 to 5 | Cc1ccc(Oc2cccc(CN3CCC(C(=O)NCc4ccccn4)C3)c2)cc1C (centres unmarked) [Compound 10, 1-[3-(3,4-Dimethyl-phenoxy)-benzyl]-pyrrolidine-3-carboxylic acid (pyridin-2-ylmethyl)-amide]
10 to 20 | < 1 | O=C(NCc1ccccn1)C1CCN(Cc2cccc(Oc3cccc(F)c3)c2)C1 (centres unmarked) [Compound 11, 1-[3-(3-Fluoro-phenoxy)-benzyl]-pyrrolidine-3-carboxylic acid (pyridin-2-ylmethyl)-amide]
> 20 | 1 to 5 | O=C(NCc1ccccn1)C1CCN(Cc2cccc(Oc3cccnc3)c2)C1 (centres unmarked) [Compound 12, 1-[3-(Pyridin-3-yloxy)-benzyl]-pyrrolidine-3-carboxylic acid (pyridin-2-ylmethyl)-amide]
> 20 | < 1 | O=C(NCc1ccccn1)C1CCN(Cc2cccc(Oc3ccc(F)cc3)c2)C1 (centres unmarked) [Compound 13, 1-[3-(4-Fluoro-phenoxy)-benzyl]-pyrrolidine-3-carboxylic acid (pyridin-2-ylmethyl)-amide]
> 20 | > 5 | O=C(NCc1ccccn1)C1CCN(Cc2cccc(Oc3ccccc3F)c2)C1 (centres unmarked) [Compound 14, 1-[3-(2-Fluoro-phenoxy)-benzyl]-pyrrolidine-3-carboxylic acid (pyridin-2-ylmethyl)-amide]
> 20 | > 5 | O=C(NCc1ccccn1)C1CCN(Cc2ccc(F)c(Oc3ccccc3)c2)C1 (centres unmarked) [Compound 15, 1-(4-Fluoro-3-phenoxy-benzyl)-pyrrolidine-3-carboxylic acid (pyridin-2-ylmethyl)-amide]
> 20 | > 5 | Cc1cncc(Oc2cccc(CN3CCC(C(=O)NCc4ccccn4)C3)c2)n1 (centres unmarked) [Compound 18, 1-[3-(6-Methyl-pyrazin-2-yloxy)-benzyl]-pyrrolidine-3-carboxylic acid (pyridin-2-ylmethyl)-amide]
> 20 | 1 to 5 | COc1ccc(Oc2cccc(CN3CCC(C(=O)NCc4ccccn4)C3)n2)cc1 (centres unmarked) [Compound 19, 1-[6-(4-Methoxy-phenoxy)-pyridin-2-ylmethyl]-pyrrolidine-3-carboxylic acid (pyridin-2-ylmethyl)-amide]
> 20 | > 5 | O=C(NCc1ccccn1)C1CCN(Cc2cccc(Oc3ccc(F)cc3)n2)C1 (centres unmarked) [Compound 20, 1-[6-(4-Fluoro-phenoxy)-pyridin-2-ylmethyl]-pyrrolidine-3-carboxylic acid (pyridin-2-ylmethyl)-amide]
> 20 | 1 to 5 | Cc1cccc(Oc2cccc(CN3CCC(F)(C(=O)NCc4ccccn4)C3)c2)c1 (centres unmarked) [Compound 21, 3-Fluoro-1-(3-m-tolyloxy-benzyl)-pyrrolidine-3-carboxylic acid (pyridin-2-ylmethyl)-amide]
> 20 | 1 to 5 | Cc1ccc(Oc2cccc(CN3CCC(F)(C(=O)NCc4ccccn4)C3)c2)cc1 (centres unmarked) [Compound 22, 3-Fluoro-1-(3-p-tolyloxy-benzyl)-pyrrolidine-3-carboxylic acid (pyridin-2-ylmethyl)-amide]
> 20 | 1 to 5 | COc1cccc(Oc2cccc(CN3CCC(F)(C(=O)NCc4ccccn4)C3)c2)c1 (centres unmarked) [Compound 23, 3-Fluoro-1-[3-(3-methoxy-phenoxy)-benzyl]-pyrrolidine-3-carboxylic acid (pyridin-2-ylmethyl)-amide]
> 20 | 1 to 5 | O=C(NCc1ccccn1)C1(F)CCN(Cc2cccc(Oc3ccc(F)c(F)c3)c2)C1 (centres unmarked) [Compound 24, 1-[3-(3,4-Difluoro-phenoxy)-benzyl]-3-fluoro-pyrrolidine-3-carboxylic acid (pyridin-2-ylmethyl)-amide]
> 20 | 1 to 5 | O=C(NCc1ccccn1)C1(F)CCN(Cc2cccc(Oc3cccc(C(F)(F)F)c3)c2)C1 (centres unmarked) [Compound 25, 3-Fluoro-1-[3-(3-trifluoromethyl-phenoxy)-benzyl]-pyrrolidine-3-carboxylic acid (pyridin-2-ylmethyl)-amide]
> 20 | 1 to 5 | CC(C)c1ccc(Oc2cccc(CN3CCC(F)(C(=O)NCc4ccccn4)C3)c2)cc1 (centres unmarked) [Compound 26, 3-Fluoro-1-[3-(4-isopropyl-phenoxy)-benzyl]-pyrrolidine-3-carboxylic acid (pyridin-2-ylmethyl)-amide]
> 20 | > 5 | CC1(C(=O)NCc2ccccn2)CCN(Cc2cccc(Oc3ncccn3)c2)C1 (centres unmarked) [Compound 27, 3-Methyl-1-[3-(pyrimidin-2-yloxy)-benzyl]-pyrolidine-3-carboxylic acid (pyridin-2-ylmethyl)-amide]
10 to 20 | 1 to 5 | O=C(NCc1ccccn1)C1CCN(Cc2cccc(-c3ccccc3)c2)C1 (centres unmarked) [Compound 29, 1-Biphenyl-3-ylmethyl-pyrrolidine-3-carboxylic acid (pyridin-2-ylmethyl)-amide]
> 20 | < 1 | O=C(NCc1ccccn1)C1CCN(Cc2cccc(OCC(F)(F)F)c2)C1 (centres unmarked) [Compound 30, 1-[3-(2,2,2-Trifluoro-ethoxy)-benzyl]-pyrrolidine-3-carboxylic acid (pyridin-2-ylmethyl)-amide]
> 20 | 1 to 5 | O=C(NCc1ccccn1)C1CCN(Cc2ccc3c(c2)OC(F)(F)O3)C1 (centres unmarked) [Compound 31, 1-(2,2-Difluoro-benzo[1,3]dioxol-5-ylmethyl)-pyrrolidine-3-carboxylic acid (pyridin-2-ylmethyl)-amide]
> 20 | 1 to 5 | CC1(C)Cc2cc(CN3CCC(C(=O)NCc4ccccn4)C3)ccc2O1 (centres unmarked) [Compound 32, 1-(2,2-Dimethyl-2,3-dihydro-benzofuran-5-ylmethyl)-pyrrolidine-3-carboxylic acid (pyridin-2-ylmethyl)-amide]
> 20 | 1 to 5 | CC1(C)Oc2ccc(CN3CCC(C(=O)NCc4ccccn4)C3)cc2O1 (centres unmarked) [Compound 33, 1-(2,2-Dimethyl-benzo[1,3]dioxol-5-ylmethyl)-pyrrolidine-3-carboxylic acid (pyridin-2-ylmethyl)-amide]

SMILES | IC50 (read-out: Nav1.6 Tonic) [µM] | IC50 (read-out: Nav1.6 inac) [µM]
CC(C)COc1cccc(CN2CCC(Cn3ccnc3)C2)c1 (centres unmarked) [Compound 28, 1-[1-(3-Isobutoxy-benzyl)-pyrrolidin-3-ylmethyl]-1H-imidazole] | > 20 | < 1
